In PMC8286840, “Identifying SARS-CoV-2 antiviral compounds by screening for small molecule inhibitors of Nsp3 papain-like protease” (Biochemical Journal, 2021):
Structures can show the parent of a compound that is named as a salt. Where two headings read alike, the source gives them in different places.

Tests used:
[1] = molecular target: T1, SARS-CoV-2 PLpro (nsp3 1564–1878) (Severe acute respiratory syndrome coronavirus 2, UniProt P0DTD1); test: biochemical; parameters: FRET-quenched peptide (Pro3) cleavage by PLpro, 10 min pre-incubation, slope over 20 min, normalised to no-compound control; conditions: low concentration screen, read-out: % of control remaining
[2] = molecular target: T1, SARS-CoV-2 PLpro (nsp3 1564–1878); test: biochemical; parameters: FRET-quenched peptide (Pro3) cleavage by PLpro, 10 min pre-incubation, slope over 20 min, normalised to no-compound control; conditions: high concentration screen, read-out: % of control remaining

## O=c1ccc2cc(O)c(O)cc2o1 [Esculetin]
[1]; Well no.=3988
  remaining activity at 1.25 µM: 101%
[2]; Well no.=3988
  remaining activity at 3.75 µM: 98.6%

## COC(=O)[C@@H]1[C@H]2C[C@H]3c4[nH]c5ccccc5c4CCN3C[C@@H]2CC[C@@H]1O [Yohimbine (Hydrochloride)]
[1]; Well no.=8337
  remaining activity at 1.25 µM: 103%
[2]; Well no.=8337
  remaining activity at 3.75 µM: 97.4%

## CNCCCN1c2ccccc2CCc2ccccc21 [Desipramine hydrochloride]
[1]; Well no.=545
  remaining activity at 1.25 µM: 99.2%
[2]; Well no.=545
  remaining activity at 3.75 µM: 101%

## Nc1nc2c(ncn2COCCO)c(=O)[nH]1 [Acyclovir]
[1]; Well no.=159
  remaining activity at 1.25 µM: 104%
[1]; Well no.=8000
  remaining activity at 1.25 µM: 92.6%
[2]; Well no.=159
  remaining activity at 3.75 µM: 103%
[2]; Well no.=8000
  remaining activity at 3.75 µM: 89.5%

## COc1cccc2c1cc([N+](=O)[O-])c1c(C(=O)O)cc3c(c12)OCO3 [Aristolochic acid A]
[1]; Well no.=3081
  remaining activity at 1.25 µM: 106%
[2]; Well no.=3081
  remaining activity at 3.75 µM: 103%

## Brc1ccc([C@H]2CN3CCSC3=N2)cc1 [S(-)-p-Bromotetramisole oxalate]
[1]; Well no.=99
  remaining activity at 1.25 µM: 104%
[2]; Well no.=99
  remaining activity at 3.75 µM: 102%

## C/C(O)=C(\C#N)C(=O)Nc1cc(Br)ccc1Br [LFM-A13 - 2-Cyano-N-(2,5-dibromophenyl)-3-hydroxy-2-butenamide]
[1]; Well no.=2384
  remaining activity at 1.25 µM: 101%
[2]; Well no.=2384
  remaining activity at 3.75 µM: 102%

## CC1CCN(CC[C@H]2CCCN2S(=O)(=O)c2cccc(O)c2)CC1 [SB-269970 (hydrochloride)]
[1]; Well no.=8385
  remaining activity at 1.25 µM: 108%
[2]; Well no.=8385
  remaining activity at 3.75 µM: 101%

## C[C@@H](O)CCC[C@H](O)/C=C/[C@H]1[C@H](O)CC(=O)[C@@H]1C/C=C\CCCC(=O)O [19(R)-Hydroxy-prostaglandin E2]
[1]; Well no.=4533
  remaining activity at 1.25 µM: 91.3%
[2]; Well no.=4533
  remaining activity at 3.75 µM: 88.8%

## CC(C)[N+]1(C)[C@@H]2CC[C@H]1C[C@@H](OC(=O)C(CO)c1ccccc1)C2 (some centres unmarked) [Ipratropium bromide]
[1]; Well no.=526
  remaining activity at 1.25 µM: 105%
[2]; Well no.=526
  remaining activity at 3.75 µM: 103%

## CCCCCCCCCCC/C=C\C(C)(C)/C=C\CCCC(=O)O [7,7-Dimethyleicosadienoic acid]
[1]; Well no.=4313
  remaining activity at 1.25 µM: 101%
[1]; Well no.=4412
  remaining activity at 1.25 µM: 100%
[2]; Well no.=4313
  remaining activity at 3.75 µM: 99.2%
[2]; Well no.=4412
  remaining activity at 3.75 µM: 101%

## COC(=O)Nc1nc2cc(Sc3ccccc3)ccc2[nH]1 [Fenbendazole]
[1]; Well no.=2076
  remaining activity at 1.25 µM: 105%
[2]; Well no.=2076
  remaining activity at 3.75 µM: 102%

## O=C1NCCCc2c1oc1ccc(O)cc21 [CID755673]
[1]; Well no.=6214
  remaining activity at 1.25 µM: 104%
[2]; Well no.=6214
  remaining activity at 3.75 µM: 96%

## COc1cc2c(cc1OC)CN(C(=O)[C@@H](NCc1ccncc1)C(C)(C)C)CC2 [TCS-OX2-29]
[1]; Well no.=6993
  remaining activity at 1.25 µM: 107%
[2]; Well no.=6993
  remaining activity at 3.75 µM: 101%

## Cn1cc(-c2[nH]c3cc(NC(=O)[C@H](N)C4CCCCC4)cc4c3c2C=NNC4=O)cn1 [PF-477736]
[1]; Well no.=4836
  remaining activity at 1.25 µM: 99.5%
[2]; Well no.=4836
  remaining activity at 3.75 µM: 101%

## C[C@@H]1CC[C@@]2(OC1)O[C@H]1C[C@H]3[C@@H]4CC=C5C[C@@H](O)CC[C@]5(C)[C@H]4CC[C@]3(C)[C@H]1[C@@H]2C [Diosgenin]
[1]; Well no.=5192
  remaining activity at 1.25 µM: 96.6%
[2]; Well no.=5192
  remaining activity at 3.75 µM: 94.9%

## CCCCc1ccc(NS(=O)(=O)c2ccc(F)cc2)cc1 [DC260126]
[1]; Well no.=6272
  remaining activity at 1.25 µM: 94.7%
[2]; Well no.=6272
  remaining activity at 3.75 µM: 94.3%

## Oc1nc(-c2ccc(C(F)(F)F)cc2)nc2c1CSCC2 [XAV-939]
[1]; Well no.=4719
  remaining activity at 1.25 µM: 102%
[2]; Well no.=4719
  remaining activity at 3.75 µM: 103%

## CCOC(=O)c1cnn(-c2ccccc2)c1NC(=O)c1cc2nc(-c3ccco3)cc(C(F)(F)Cl)n2n1 [Mycro 3]
[1]; Well no.=7158
  remaining activity at 1.25 µM: 96%
[2]; Well no.=7158
  remaining activity at 3.75 µM: 94.4%

## COc1cc(C(=O)N(CCCc2ccccc2)Cc2ccc(CC(=O)O)cc2)cc(OC)c1C [ONO-7300243]
[1]; Well no.=7711
  remaining activity at 1.25 µM: 101%
[2]; Well no.=7711
  remaining activity at 3.75 µM: 103%

## O=C1Cc2c([nH]c3ccc(Br)cc23)-c2ccccc2N1 [Kenpaullone]
[1]; Well no.=783
  remaining activity at 1.25 µM: 102%
[1]; Well no.=2554
  remaining activity at 1.25 µM: 104%
[2]; Well no.=783
  remaining activity at 3.75 µM: 102%
[2]; Well no.=2554
  remaining activity at 3.75 µM: 100%

## CN1c2c([nH]c(N)nc2=O)NC[C@@H]1CNc1ccc(C(=O)N[C@@H](CCC(=O)O)C(=O)O)cc1 [Levomefolic acid]
[1]; Well no.=7940
  remaining activity at 1.25 µM: 101%
[2]; Well no.=7940
  remaining activity at 3.75 µM: 101%

## O=c1cc(N2CCOCC2)oc2c(-c3ccccc3)cccc12 [LY-294,002 hydrochloride]
[1]; Well no.=1077
  remaining activity at 1.25 µM: 93.7%
[2]; Well no.=1077
  remaining activity at 3.75 µM: 90.8%

## O=C(O)[C@H]1CCCN1 [(R)-pyrrolidine-2-carboxylic acid]
[1]; Well no.=8700
  remaining activity at 1.25 µM: 106%
[2]; Well no.=8700
  remaining activity at 3.75 µM: 101%

## COCCc1ccc(OCC(O)CNC(C)C)cc1 (centres unmarked) [Metoprolol (Succinate)]
[1]; Well no.=7475
  remaining activity at 1.25 µM: 94.3%
[2]; Well no.=7475
  remaining activity at 3.75 µM: 95.9%

## CC1(C)O[C@@H]2C[C@H]3[C@@H]4CCC5=CC(=O)C=C[C@]5(C)[C@H]4[C@@H](O)C[C@]3(C)[C@]2(C(=O)CO)O1 [Desonide]
[1]; Well no.=5339
  remaining activity at 1.25 µM: 95.1%
[1]; Well no.=8291
  remaining activity at 1.25 µM: 99.7%
[2]; Well no.=5339
  remaining activity at 3.75 µM: 84.9%
[2]; Well no.=8291
  remaining activity at 3.75 µM: 96%

## CS(=O)(=O)CCNCc1ccc(-c2ccc3ncnc(Nc4ccc(OCc5cccc(F)c5)c(Cl)c4)c3c2)o1 [Lapatinib]
[1]; Well no.=2983
  remaining activity at 1.25 µM: 94.8%
[2]; Well no.=2983
  remaining activity at 3.75 µM: 92.8%

## Nc1nc(=O)c2nc(CNc3ccc(C(=O)N[C@@H](CCC(=O)O)C(=O)O)cc3)cnc2[nH]1 [Folic acid]
[1]; Well no.=7300
  remaining activity at 1.25 µM: 97.8%
[2]; Well no.=7300
  remaining activity at 3.75 µM: 96.1%

## CC(=O)OCC(CCn1cnc2cnc(N)nc21)COC(C)=O [Famciclovir]
[1]; Well no.=2074
  remaining activity at 1.25 µM: 101%
[2]; Well no.=2074
  remaining activity at 3.75 µM: 104%

## CC(=O)[C@H]1CC[C@H]2[C@@H]3CC[C@H]4CC(=O)CC[C@]4(C)[C@H]3CC[C@]12C [5a-Pregnane-3,20-dione]
[1]; Well no.=7357
  remaining activity at 1.25 µM: 106%
[2]; Well no.=7357
  remaining activity at 3.75 µM: 105%

## CCOc1cc(N)c(Cl)cc1C(=O)NCC1CN(Cc2ccc(F)cc2)CCO1 (centres unmarked) [Mosapride (citrate)]
[1]; Well no.=6657
  remaining activity at 1.25 µM: 104%
[2]; Well no.=6657
  remaining activity at 3.75 µM: 109%

## C=CC[C@H](N)C(=O)O [L-allylglycine]
[1]; Well no.=292
  remaining activity at 1.25 µM: 91.4%
[2]; Well no.=292
  remaining activity at 3.75 µM: 91.8%

## CN1C(=O)/C(=C2/C(=O)Nc3ccccc32)c2ccccc21 [Meisoindigo]
[1]; Well no.=6772
  remaining activity at 1.25 µM: 94.5%
[2]; Well no.=6772
  remaining activity at 3.75 µM: 95%
